The values below come from ChEMBL document CHEMBL1201862, “PubChem BioAssay data set” (2004).

The term AC50 denotes the concentration giving half of the maximal activity seen. Broadly, the EC50 is the midpoint of the concentration-response curve. By IC50 is commonly meant the concentration needed to halve the response being measured.

Experiment [1] deals with Cytochrome P450 2D6 (Homo sapiens, UniProt P10635).
Experiment [2] in a line: inhibitors of firefly luciferase expression or activity, dose response, H4 neuroglioma cells, luminescence (AID 1990). The experiment is classed as functional, cell-based.
Experiment [3] is described as follows: inhibitors of SNCA 5'UTR-driven reporter translation, confirmation, H4 neuroglioma cells, luminescence (AID 1988). The experiment is classed as functional, cell-based.
Experiment [4] can be described thus: Luminescence Cell-Based Dose Response HTS to Identify Inhibitors of 5'UTR Stem-Loop Driven Prion Protein mRNA Translation in H4 Neuroglioblastoma Cells. [Related pubchem assays: 1827 (Project Summary), 1813 (Primary HTS)]. The experiment is classed as functional.
Experiment [5] can be described thus: Luminescence Cell-Based Dose Retest to Confirm Inhibitors of Cancer Stem Cells. [Related pubchem assays (depositor defined):AID2717, AID2721]. As to conditions: Homo sapiens. The experiment is classed as functional.
Experiment [6] concerns the target Cytochrome P450 3A4 (Homo sapiens, UniProt P08684).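 Also: CYP3A4 tested as one member of a cytochrome P450 panel screen.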
Experiment [7] addresses Cytochrome P450 2C9 (Homo sapiens, UniProt P11712).
Experiment [8] concerns the target T1, Cytochrome P450 1A2 (Homo sapiens, UniProt P05177).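 Also: PubChem cytochrome P450 panel assay, CYP1A2 panel member.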
T1 sequence (P05177 whole entry): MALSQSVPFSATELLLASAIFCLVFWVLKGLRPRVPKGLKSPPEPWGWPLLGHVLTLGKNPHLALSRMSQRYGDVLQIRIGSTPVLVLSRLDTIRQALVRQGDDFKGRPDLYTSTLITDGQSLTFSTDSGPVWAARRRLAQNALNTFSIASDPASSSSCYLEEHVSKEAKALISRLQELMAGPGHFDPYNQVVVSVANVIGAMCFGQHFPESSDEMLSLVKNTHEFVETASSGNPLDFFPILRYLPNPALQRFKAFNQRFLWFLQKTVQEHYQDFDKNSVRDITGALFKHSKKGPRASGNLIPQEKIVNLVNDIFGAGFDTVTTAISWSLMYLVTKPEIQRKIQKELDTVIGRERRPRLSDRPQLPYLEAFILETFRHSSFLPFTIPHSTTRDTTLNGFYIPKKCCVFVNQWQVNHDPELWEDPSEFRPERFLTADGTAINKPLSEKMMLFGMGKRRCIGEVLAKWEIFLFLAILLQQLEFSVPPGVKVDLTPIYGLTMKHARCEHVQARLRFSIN

Experiment [9] has as its target T2, Heat shock factor protein 1 (Mus musculus, UniProt P38532).
T2 sequence (P38532 whole entry): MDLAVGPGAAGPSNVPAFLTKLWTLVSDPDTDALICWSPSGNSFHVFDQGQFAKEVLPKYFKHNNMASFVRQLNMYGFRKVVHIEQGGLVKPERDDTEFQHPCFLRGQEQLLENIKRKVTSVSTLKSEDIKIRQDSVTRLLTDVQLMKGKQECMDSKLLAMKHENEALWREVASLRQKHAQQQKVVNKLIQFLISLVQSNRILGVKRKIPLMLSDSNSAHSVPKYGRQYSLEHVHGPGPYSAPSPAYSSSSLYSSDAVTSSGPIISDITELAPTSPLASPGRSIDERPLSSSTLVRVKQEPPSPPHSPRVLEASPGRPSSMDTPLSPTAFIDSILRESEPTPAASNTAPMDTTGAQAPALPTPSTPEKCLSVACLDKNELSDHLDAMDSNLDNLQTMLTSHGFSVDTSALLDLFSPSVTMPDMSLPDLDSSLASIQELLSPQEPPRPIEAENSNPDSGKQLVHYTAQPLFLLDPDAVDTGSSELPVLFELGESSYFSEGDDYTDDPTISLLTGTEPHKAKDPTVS
Briefly: inhibition of MG132-induced HSE-luciferase signal, confirmation, cell-based, NIH3T3, luminescence, dose retest (AID 2382).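 Also: NIH3T3 fibroblasts with HSF1-driven luciferase reporter stressed by proteasome inhibitor MG132; luminescence from HSF1-driven luciferase expression after 8 hours of MG132 stress.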 The experiment is classed as functional.

The target in experiment [10] is T3, Rac GTPase-activating protein 1 (Homo sapiens, UniProt Q9H0H5).
T3 sequence (Q9H0H5 whole entry): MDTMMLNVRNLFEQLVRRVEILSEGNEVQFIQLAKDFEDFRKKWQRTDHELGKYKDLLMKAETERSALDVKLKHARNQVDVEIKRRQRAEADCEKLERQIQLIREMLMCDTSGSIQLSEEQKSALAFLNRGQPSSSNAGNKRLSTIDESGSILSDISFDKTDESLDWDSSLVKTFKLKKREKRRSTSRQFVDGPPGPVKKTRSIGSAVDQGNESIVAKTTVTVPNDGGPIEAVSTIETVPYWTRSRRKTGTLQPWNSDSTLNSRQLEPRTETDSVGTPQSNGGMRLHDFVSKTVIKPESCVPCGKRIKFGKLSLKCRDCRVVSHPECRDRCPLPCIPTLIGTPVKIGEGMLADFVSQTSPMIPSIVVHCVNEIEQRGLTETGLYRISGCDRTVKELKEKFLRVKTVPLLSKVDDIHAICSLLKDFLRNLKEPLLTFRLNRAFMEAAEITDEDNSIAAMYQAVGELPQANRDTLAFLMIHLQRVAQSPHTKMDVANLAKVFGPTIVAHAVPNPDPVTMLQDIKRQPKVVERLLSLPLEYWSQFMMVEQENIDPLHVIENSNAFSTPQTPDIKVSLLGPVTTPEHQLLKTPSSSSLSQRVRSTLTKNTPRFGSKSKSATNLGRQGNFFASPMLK
Kind of experiment: MgcRacGAP GTPase-activating activity inhibitors, confirmation, biochemical, ADP Hunter fluorescence, primary and confirmatory (AID 624330). The experiment is classed as functional.

“And” between values parts separate entries of the source, which are not always exact repeats. Equal entries are not always repeated. The source made the active and inactive calls.

Chain of Cytochrome P450 2C9 (P11712 whole entry): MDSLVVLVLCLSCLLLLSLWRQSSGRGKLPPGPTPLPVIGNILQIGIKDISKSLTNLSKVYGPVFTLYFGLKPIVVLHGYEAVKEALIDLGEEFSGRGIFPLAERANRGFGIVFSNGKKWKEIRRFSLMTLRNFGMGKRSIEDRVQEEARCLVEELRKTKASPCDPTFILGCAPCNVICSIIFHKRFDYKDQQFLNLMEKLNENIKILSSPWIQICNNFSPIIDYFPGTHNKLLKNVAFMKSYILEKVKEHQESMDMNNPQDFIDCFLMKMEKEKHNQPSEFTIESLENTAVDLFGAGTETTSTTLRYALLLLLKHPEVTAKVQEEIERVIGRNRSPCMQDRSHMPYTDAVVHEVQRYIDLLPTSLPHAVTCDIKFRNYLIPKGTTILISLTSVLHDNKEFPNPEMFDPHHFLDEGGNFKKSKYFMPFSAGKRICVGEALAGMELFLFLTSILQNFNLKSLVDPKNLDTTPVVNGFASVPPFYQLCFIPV
Chain of Cytochrome P450 2D6 (P10635 whole entry): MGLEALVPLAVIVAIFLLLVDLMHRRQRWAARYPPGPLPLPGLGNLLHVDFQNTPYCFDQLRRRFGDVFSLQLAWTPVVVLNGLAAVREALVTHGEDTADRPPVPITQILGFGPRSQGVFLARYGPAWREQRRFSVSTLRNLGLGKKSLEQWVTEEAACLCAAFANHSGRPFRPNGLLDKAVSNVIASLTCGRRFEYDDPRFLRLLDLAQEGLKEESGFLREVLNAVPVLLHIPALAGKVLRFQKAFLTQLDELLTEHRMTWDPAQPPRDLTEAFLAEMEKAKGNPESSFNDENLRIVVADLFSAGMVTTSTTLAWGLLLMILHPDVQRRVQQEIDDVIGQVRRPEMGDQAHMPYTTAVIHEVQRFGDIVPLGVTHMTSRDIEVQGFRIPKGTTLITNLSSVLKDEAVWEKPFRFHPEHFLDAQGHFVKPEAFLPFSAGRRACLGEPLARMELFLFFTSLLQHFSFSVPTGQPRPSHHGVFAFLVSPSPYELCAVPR
Chain of Cytochrome P450 3A4 (P08684 whole entry): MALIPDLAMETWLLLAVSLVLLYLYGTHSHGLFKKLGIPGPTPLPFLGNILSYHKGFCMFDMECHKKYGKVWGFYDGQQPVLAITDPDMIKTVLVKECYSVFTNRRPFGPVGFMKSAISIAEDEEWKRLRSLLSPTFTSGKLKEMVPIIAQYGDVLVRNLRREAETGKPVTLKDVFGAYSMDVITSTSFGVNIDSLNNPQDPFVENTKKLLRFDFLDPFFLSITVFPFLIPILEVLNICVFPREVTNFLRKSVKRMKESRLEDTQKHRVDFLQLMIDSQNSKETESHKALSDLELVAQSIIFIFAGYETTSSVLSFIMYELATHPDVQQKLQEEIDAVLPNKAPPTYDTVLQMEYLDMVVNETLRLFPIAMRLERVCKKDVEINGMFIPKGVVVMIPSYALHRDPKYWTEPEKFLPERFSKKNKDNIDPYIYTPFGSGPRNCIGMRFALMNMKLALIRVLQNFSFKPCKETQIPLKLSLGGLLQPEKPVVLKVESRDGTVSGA

In the case of `O=C1Nc2ccccc2C1=Nc1sc2c(c1C(=O)NCCc1ccccc1)CCCC2`, the AC50 in experiment [1] was 4.47 µM (inconclusive).

In the case of `CCOc1ccccc1NC(=O)CSc1nnc(-c2ccco2)n1Cc1ccco1`, the EC50 in experiment [2], in experiment [3] and in experiment [4] was > 120 µM (not active) in each case.

As to `COc1cc(S(=O)(=O)N2CCCCCC2)c(OC)cc1Br`, the AC50 in [5] was 1.01 µM (active).

As to `C[C@H](C(=O)c1ccccc1)[C@@H](c1ccccc1)N1CCOCC1`, the AC50 in experiment [6] is 0.501 µM (inconclusive).

Consider `CN1CCN(S(=O)(=O)c2cccc(C(=O)Nc3cc(C(F)(F)F)ccc3N3CCCCC3)c2)CC1`, for which the AC50 in [5] is 2.5 µM (active).

Turning to `CCOc1ccc(C(=O)Nc2ccc3nc(N4CCN(CC)CC4)cc(C)c3c2)cc1`, the figures for the concentration for a half-maximal effect (EC50) in experiment [2], in experiment [3] and in experiment [4] were 10.3 µM (active), > 120 µM (not active) and > 120 µM (not active), respectively.

For `COc1ccc(Oc2ncc3nc(-c4cccc(C#N)c4)c(=O)n(CCC#N)c3n2)cc1`, the AC50 in experiment [7] and in [8] was 25.1 µM (inconclusive) throughout.

With `Cc1onc(-c2c(Cl)cccc2Cl)c1C(=O)Nc1ccc2c(c1)OCO2`, the AC50 in experiment [6] was 1 µM (inconclusive).

As for `Nc1nc(Cl)cc(N2CCOCC2)n1`, the AC50 is 39.8 µM (inconclusive) in experiment [1] and 15.8 µM (inconclusive) in experiment [8].

`CCCCCn1c(=O)c(C(=O)Nc2ccccn2)c(O)c2ccccc21`: the EC50 is > 120 µM (not active) in experiment [2], > 195 µM (not active) in experiment [9], 9.51 µM (active) in [3] and 11.2 µM (active) in [4].

In the case of `COC(=O)C1C(=O)C2=C(CC1C)NC(=O)CC2c1cccc(C)c1` (configuration not stated), the AC50 is 15.8 µM (inconclusive) in [7] and > 195 µM (inactive) in experiment [5].

For `COc1ccc(CNC(=O)Cc2csc(Nc3nc(S)nc4ccccc34)n2)cc1`, in experiment [1], the AC50 is 0.447 µM (inconclusive).

On to `NC(=O)CNC(=O)[C@@H]1CC2(CC(c3cccc([N+](=O)[O-])c3)=NO2)CN1C(=O)c1ccccc1` (some centres not stated), for which the AC50 in experiment [1] is 31.6 µM (inconclusive); in experiment [7] it was 0.708 µM (inconclusive).

For `Cc1noc(C)c1-c1ccc2ncnc(NCCN3CCOCC3)c2c1`, the AC50 in [1] was 31.6 µM (inconclusive).

As to `COc1ccc2c(c1)c(=O)oc1c(C)c(OCC(=O)N3CCc4ccccc4C3)ccc12`, the AC50 in experiment [6] was 3.16 µM (inconclusive).

As for `N=C(NOC(=O)Cc1ccc(Cl)cc1)c1cccnc1`, the AC50 in [1] was 6.31 µM (inconclusive); in experiment [7] it was 12.6 µM (inconclusive).

Consider `CNc1ncncc1-c1ccccc1C`, for which the AC50 in experiment [1] is 31.6 µM (inconclusive); in [8], 12.6 µM (inconclusive).

Take `Cc1onc(-c2ccccc2)c1C(=O)N1CCN(S(=O)(=O)c2ccc(Cl)cc2)CC1`: the EC50 in experiment [2], in experiment [3] and in [4] was > 120 µM (not active) each time.

Turning to `COc1ccc(-n2c(C)nnc2O)cc1OC`, the AC50 in [7] was 1.78 µM (inconclusive).

In the case of `Cc1c(CCC(=O)N[C@@H](C)C(=O)O)c(=O)oc2cc3oc4c(c3cc12)CCCC4`, the EC50 in experiment [2] is 12.7 µM (active); in [3] it was 14.4 µM (active); in experiment [4] it was 17 µM (active).

As to `CCOC(=O)Cn1nnc2c(sc3nc4c(c(-c5ccccc5)c32)CCC4)c1=O`, the EC50 is > 120 µM (not active) in experiment [2], > 120 µM (not active) in experiment [3] and 3.88 µM (active) in experiment [4].

For `O=C1CN=C(c2cccs2)c2c(sc3c2CCCC3)N1`, the AC50 in experiment [7] is 35.5 µM (inconclusive).

As to `O=[N+]([O-])c1ccc(N2CCN(Cc3ccccc3)CC2)c(S(=O)(=O)N2CCOCC2)c1`, in [6], the AC50 is 12.6 µM (inconclusive).

With `Cc1nn(Cc2ccc([N+](=O)[O-])cc2)c(=O)n1-c1cccc(F)c1`, the results for the AC50 in experiment [1] and in experiment [8] were 25.1 µM (inconclusive) and 17.8 µM (inconclusive), respectively.

As for `COc1ccc(-c2nc3cnc(N4CCNCC4)nc3n(Cc3cccs3)c2=O)cc1`, the AC50 in [7] was 39.8 µM (inconclusive).

In the case of `COc1ccc(Oc2ncc3nc(CCc4ccccc4)c(=O)n(C)c3n2)cc1`, in [6], the AC50 was 7.94 µM (inconclusive).

`CC12CC(NC(=O)N1c1cccc(C(=O)NCc3ccccc3)c1)c1ccccc1O2` (configuration not stated): the AC50 in experiment [1] was 28.2 µM (inconclusive); in experiment [8] it was 25.1 µM (inconclusive).

For `CCOC(=O)c1c(C)[nH]c(C(=O)Nc2ccc(NC(C)=O)cc2)c1C`, the EC50 in experiment [2] is 10.9 µM (active); in experiment [3] it was 10.9 µM (active); in experiment [4], 3.99 µM (active).

As for `CC(C)CCNc1nc(N)c([N+](=O)[O-])c(NCC2CCCO2)n1` (configuration not stated), the EC50 is 12 µM (active) in experiment [2], > 120 µM (not active) in [3] and > 120 µM (not active) in [4].

On to `CCN(CC)C1=NC(=[N+](CC)CC)c2ccccc21`, for which the half-maximal activity concentration (AC50) in experiment [1] is 14.1 µM (inconclusive).

Regarding `CCOc1c2ccc(C(=O)NCc3ccc4c(c3)OCO4)cc2nn1CC`, the AC50 is 15.8 µM (inconclusive) in [1] and 8.91 µM (inconclusive) in experiment [8].

Take `CSc1ccc2nnc(-c3cccc(F)c3)n2n1`: the AC50 in experiment [7] was 39.8 µM (inconclusive).

Consider `COc1ccccc1-c1cc(NCc2cccs2)ncn1`, for which the AC50 in experiment [6] is 31.6 µM (inconclusive).

Turning to `COc1ccc(-c2oc3ccc(N4CCOCC4)cc3c2C#CCO)cc1`, the AC50 in [5] was 3.96 µM (active).

Turning to `O=S(=O)(c1ccc(F)cc1)N1CCCC(CO)C1` (configuration not stated), the AC50 in experiment [6] is 25.1 µM (inconclusive).

As for `CCN(CC)S(=O)(=O)c1ccc(OC)c(NC(=O)CSc2ccccc2)c1`, the AC50 in [6] is 31.6 µM (inconclusive).

Turning to `CCC(CC)C(=O)Nc1cccc(/C(C)=N/NC(=O)c2c(Br)cnn2C)c1`, the AC50 in experiment [7] is 8.91 µM (inconclusive); in experiment [8], 12.6 µM (inconclusive).

For the compound `CCCc1[nH]nc2c1/C(=N/O)CC(c1ccccc1)C2` (configuration not stated), the EC50 in experiment [2] was 12.8 µM (active); in [3], 13.4 µM (active); in [4], > 120 µM (not active).

Take `Cc1cccc(C(=O)N/N=C/c2ccc(OC3CSC3)cc2)c1`: the AC50 in experiment [5] is 1.71 µM (active).

Consider `COc1cc(/C=N/NC(=O)c2cc(C)oc2C)ccc1O`, for which the EC50 in [9] was > 195 µM (not active). Also, the IC50 in [10] is 37.6 µM (active).

As to `C=C1/C(=C\C=C2/CCC[C@]3(C)[C@@H]([C@H](C)/C=C/[C@@H](O)C4CC4)CC[C@@H]23)C[C@@H](O)C[C@@H]1O` [CALCIPOTRIENE], in [5], the AC50 was 8.81 µM (active).

For the compound `CN(C)CCC[C@@]1(c2ccc(F)cc2)OCc2cc(C#N)ccc21` [ESCITALOPRAM], the AC50 in [1] is 39.8 µM (inconclusive) and 12.6 µM (inconclusive).
